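Where inhibition never reached the appropriate level, the endpoint shown equals the highest concentration tested. Otherwise, values were interpolated linearly from a five-concentration, 48-hour dose response in 96-well plates. Here, GI50 denotes the concentration required for 50% inhibition of growth. TGI is the concentration that stops growth completely.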
Key:
Test in all cases: NCI tumour cell line growth inhibition, 48 h
U251 CNS = system: U251 CNS
OVCAR-3 ovarian = system: OVCAR-3 ovarian
HOP-92 NSCLC = system: HOP-92 NSCLC
M14 melanoma = system: M14 melanoma
SF-539 CNS = system: SF-539 CNS
OVCAR-4 ovarian = system: OVCAR-4 ovarian
HT29 colon = system: HT29 colon
NCI-H23 lung = system: NCI-H23 lung
SR leukemia = system: SR leukemia
OVCAR-5 ovarian = system: OVCAR-5 ovarian

Compound	GI50 (U251 CNS) [µM]	TGI (U251 CNS) [µM]	GI50 (OVCAR-3 ovarian) [µM]	TGI (OVCAR-3 ovarian) [µM]	GI50 (HOP-92 NSCLC) [µM]	TGI (HOP-92 NSCLC) [µM]	GI50 (M14 melanoma) [µM]	TGI (M14 melanoma) [µM]	GI50 (SF-539 CNS) [µM]	TGI (SF-539 CNS) [µM]	GI50 (OVCAR-4 ovarian) [µM]	TGI (OVCAR-4 ovarian) [µM]	GI50 (HT29 colon) [µM]	TGI (HT29 colon) [µM]	GI50 (NCI-H23 lung) [µM]	TGI (NCI-H23 lung) [µM]	GI50 (SR leukemia) [µM]	TGI (SR leukemia) [µM]	GI50 (OVCAR-5 ovarian) [µM]	TGI (OVCAR-5 ovarian) [µM]
O=C(c1ccccc1)c1c2n(c3c1cc(O)c1ccccc13)CCN2	1.78	3.4	2.23	7.82	2.63	9.36	7.09	19.3	2.39	6.04	1.53	2.86	3.67	15.5	4.17	12	1.06	3.46	0.72	7.91
N/C(=N\C(N)=N\c1nc2ccccc2s1)c1ccnc(Br)c1	5.63	48.9	3.46	18.9	7.02	> 100	3.39	> 100	4.67	95	7.83	> 100	3.55	> 100	14.2	> 100	2.9	> 100	62.3	> 100
Cc1cc2nc3c4cc([N+](=O)[O-])ccc4n(CCN(C)C)c3nc2cc1C	0.48	11.9	0.59	5.23	0.648	13.3	0.467	1.99	0.469	2.56	0.527	6.6	0.387	2.33	0.501	2.58	0.253	5.1	0.651	9.82
CCN(CC)CC(O)c1cc(-c2ccc(Cl)cc2)nc2cc(Cl)ccc12 (stereo not given)	1.75	3.34	1.92	4.05	1.83	7.38	1.83	3.44	2.03	4.63	3.3	10.6	1.71	3.66	1.79	4.49	1.69	3.52	2.11	5.58
COc1ccc2c(c1)C(=O)c1c-2c(OCCN2CCCCC2)nc2ccc(OC)cc12	0.513	1.79	0.892	2.67	2.41	19.7	0.904	6.87	0.693	12.4	1.36	10.7	0.435	2.7	1.12	7.68	0.235	1.25	3.74	19.7
Nc1nc(Cl)nc2c1ncn2C1OC(CO)C(O)C1O (stereo not given)	13.2	> 100	> 100	> 100	6.27	> 100	0.999	4.2	> 90.1	> 100	> 100	> 100	> 93.3	> 100	4.08	> 100	8.92	> 100	86.9	> 100
c1ccc(N2N=NC3C4CC(C5c6ccccc6C45)C32)cc1 (stereo not given)	–	> 100	–	> 100	–	54.6	–	> 100	–	> 100	–	> 100	–	40.3	–	75.9	–	> 100	–	> 100
